How the values were obtained:
[1] = Chemical stability studies in aqueous media, monitored by HPLC; format: physicochemical; details: for stability in 50 mM phosphate buffer at pH 7.4 or aqueous 0.01 N NaOH: HPLC Method 1; for stability in aqueous 0.01 N HCl and de-ionized water at pH 5.6: freshly prepared solutions
Method: (2) de-ionized water at pH 5.6;
(3) 50 mM phosphate buffer at pH 7.4; and […]

[2] = In vivo pharmacokinetic (PK) and blood brain barrier (BBB) studies, cassette dosing; set-up: species or system male Sprague-Dawley rats; details: tail vein injection, rat; for AUC brain* / AUC: normalized to 2 mg/kg dose; for Kp at 5 min / Kp / AUC: male, Sprague-Dawley; for Kp at 5 min / Kp: brain/plasma, intravenous; for Kp at 5 min: read-out: Brain/Plasma ratio at 5 min; for Kp: read-out: AUC brain/AUC plasma; for AUC: iv, plasma
Method: In vivo pharmacokinetic (PK) and blood brain barrier (BBB) studies were conducted in male Sprague-Dawley rats using cassette dosing. The topic of cassette dosing has been reviewed by Manitpisitkul, P. and White, R. E. (August 2004), Drug Discovery, Vol 9. No. 15, pp. 652-658. The mode of administration was through tail vein injection.

[3] = pH 7.4; cited from earlier work
[4] = format: physicochemical
Excerpt: The term “log kBMC” refers to the logarithm of the chromatographic capacity factor (reference retention time) in BMC, a special type of HPLC (Escuder-Gilabert, L., et al., Journal of Chromatography B, 2004, 807, 193-201). This analytical technique was used to correlate the log kBMC of 31 reference drug substances with known experimentally determined log BB values. A linear regression mathematical equation log BB=a(log kBMC)+b was obtained from these reference drug substances wherein a and b are constants. The log kBMC of the compounds of the present invention was measured by BMC. The experimental log kBMC of the compounds of the present invention was fit into the log BB=a(log KBMC) b equation to obtain a calculated log BB value. The calculated log BB is an indicator of the BBB penetration property of the compounds of the present invention.
FIG. 1 provides a table illustrating the physical properties of selected compounds of formula (I) according to the present invention. […] The chromatographic capacity factor kBMC of 31 reference drug substances with known experimentally determined log BB values were recorded (FIGS. 2 and 3). […] We used the above equation to compute a calculated log BB value of the compounds of the present invention as an estimate of the BBB penetration properties of the compounds. Deferiprone is known to penetrate the BBB and has a calculated log BB value of −1.05. […]

[5] = prior-art / published chelators; 1×10^−5 M chelator and 1×10^−6 M Fe(III); cited from earlier work

AUC brain* [2]	Kp at 5 min [2]	Kp [2]	AUC [2]	Kα [2]	Kβ [2]	t1/2α [2]	t1/2β [2]	SMILES	also measured
–	–	–	–	–	–	–	–	Cn1ccc(=O)c(O)c1C(F)F [(v), 2-difluoromethyl-3-hydroxy-1-methyl-1H-pyridin-4-one]	stability in 50 mM phosphate buffer at pH 7.4 or aqueous 0.01 N NaOH [1]: almost instantaneously hydrolysed to their corresponding aldehydes; stability in aqueous 0.01 N HCl and de-ionized water at pH 5.6 [1]: stable; stability in pH 7.4 phosphate buffer and 0.01 M sodium hydroxide [1]: unstable
–	–	–	–	–	–	–	–	Cn1cc(O)c(=O)cc1CF [(D)]	stability in aqueous solution [1]: unstable
–	–	–	–	–	–	–	–	Cc1cc(=O)c(O)c(C(O)C(F)(F)F)n1C (stereo not drawn) [Apo6729, 3-hydroxy-1,6-dimethyl-2-(2,2,2-trifluoro-1-hydroxy-ethyl)-1H-pyridin-4-one]	time stable in 0.1N HCl, 50 mM phosphate buffer pH 7.4 and 0.1 N NaOH ([1]; 0.1N HCl, 50 mM phosphate buffer at pH 7.4, 0.1 N NaOH, room temperature): at least 21 hrs
–	–	–	–	–	–	–	–	Cc1cc(=O)c(O)c(CF)n1C [compound (C)]	stability in aqueous solution [1]: unstable
–	–	–	–	–	–	–	–	Cn1cc(O)c(=O)cc1CF [compound (vii), 2-fluoromethyl-5-hydroxy-1-methyl-1H-pyridin-4-one]	fraction of compound remaining ([1]; 50 mM phosphate buffer at pH 7.4, after 5 hrs): about half; time stable in MeOH ([1]; MeOH): at least 4 hrs; stability in aqueous 0.01 N NaOH ([1]; aqueous 0.01 N NaOH): decomposed rapidly; stability in pH 7.4 phosphate buffer and 0.01 M sodium hydroxide [1]: unstable
580 ng·h/mL	0.5	0.65	890 ng·h/mL	2.37 h⁻¹	0.136 h⁻¹	0.29 h	5.10 h	Cc1c(O)c(=O)c(CC(F)(F)F)cn1C [Apo6855, 3-Hydroxy-1,2-dimethyl-5-(2,2,2-trifluoro-ethyl)-1H-pyridin-4-one]	–
2730 ng·h/mL	0.46	0.6	4520 ng·h/mL	0.68 h⁻¹	0.133 h⁻¹	1.02 h	5.21 h	Cn1ccc(=O)c(O)c1CC(F)(F)F [Apo6825, 3-hydroxy-1-methyl-2-(2,2,2-trifluoro-ethyl)-1H-pyridin-4-one]	–
–	–	–	–	–	–	–	–	Cc1cc(=O)c(O)c(C(F)F)n1C [(iv), 2-difluoromethyl-3-hydroxy-1,6-dimethyl-1H-pyridin-4-one]	stability in 50 mM phosphate buffer at pH 7.4 or aqueous 0.01 N NaOH [1]: almost instantaneously hydrolysed to their corresponding aldehydes; stability in aqueous 0.01 N HCl and de-ionized water at pH 5.6 [1]: stable
860 ng·h/mL	0.45	0.79	1080 ng·h/mL	1.36 h⁻¹	0.215 h⁻¹	0.51 h	3.22 h	Cc1c(O)c(=O)ccn1C [Deferiprone, 3-hydroxy-1,2-dimethyl-1H-pyridin-4-one]	distribution coefficient [3]: 0.17; calculated log BB [4]: −1.05
–	–	–	–	–	–	–	–	CNC(=O)c1c(O)c(=O)cc(C)n1C [CP502]	pFe(III) / pFe^3+ [5]: 21

Reference: patent publication US8673943B2, “Fluorinated derivatives of deferiprone” (Apotex Technologies Inc., priority 2007, dated 2014)
